Assay results reported in US12391648B2, “Pyridyloxy thioester derivative and preparation method therefor, herbicidal composition, and application” (Qingdao Kingagroot Chemical Compound Co., Ltd., priority 2018, dated 2025).

What was measured:
Assay in all cases: Post-emergence test experiment (Table 3, 1000 g/ha)
Type in all cases: in vivo
Conditions in all cases: post-emergence spray, after 3 weeks, fresh weight inhibition
[1] = test system: Galium spurium
How it was run: (§1)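 Weed seeds sown in soil-filled pots in greenhouse, sprayed at 2-3 leaf stage (2 weeks after sowing) with compound in acetone/tween-80 plus methyl oleate emulsible concentrate (1.5 L/ha) diluted in water. Fresh-weight growth inhibition scored after 3 weeks on 0-5 scale (5: >85%, 0: <5%).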

[2] = test system: Leptochloa chinensis
How it was run: as §1

[3] = test system: Abutilon theophrasti
How it was run: as §1

[4] = test system: Monochoria vaginalis
How it was run: as §1

[5] = test system: Digitaria sanguinalis
How it was run: as §1

[6] = test system: Setaria viridis
How it was run: as §1

| SMILES | Activity level (growth inhibition rate) Galium spurium [1] | Activity level (growth inhibition rate) Leptochloa chinensis [2] | Activity level (growth inhibition rate) Abutilon theophrasti [3] | Activity level (growth inhibition rate) Monochoria Vaginalis [4] | Activity level (growth inhibition rate) Digitaria sanguinalis [5] | Activity level (growth inhibition rate) Setaria viridis [6] |
| --- | --- | --- | --- | --- | --- | --- |
| CC(Oc1nc(F)c(Cl)c(N)c1Cl)C(=O)SC(C)C(C)C (stereo not drawn) [Compound 147] | 5 (Level 5: the growth inhibition rate is greater than 85%) | 5 (Level 5: the growth inhibition rate is greater than 85%) | 5 (Level 5: the growth inhibition rate is greater than 85%) | 5 (Level 5: the growth inhibition rate is greater than 85%) | 5 (Level 5: the growth inhibition rate is greater than 85%) | 5 (Level 5: the growth inhibition rate is greater than 85%) |
| CC(Oc1nc(F)c(Cl)c(N)c1Cl)C(=O)SCC(C)(C)C (stereo not drawn) [Compound 148] | 5 (Level 5: the growth inhibition rate is greater than 85%) | 5 (Level 5: the growth inhibition rate is greater than 85%) | 5 (Level 5: the growth inhibition rate is greater than 85%) | 5 (Level 5: the growth inhibition rate is greater than 85%) | 5 (Level 5: the growth inhibition rate is greater than 85%) | 5 (Level 5: the growth inhibition rate is greater than 85%) |
| CCC(C)(C)SC(=O)C(C)Oc1nc(F)c(Cl)c(N)c1Cl (stereo not drawn) [Compound 149] | 5 (Level 5: the growth inhibition rate is greater than 85%) | 5 (Level 5: the growth inhibition rate is greater than 85%) | 5 (Level 5: the growth inhibition rate is greater than 85%) | 5 (Level 5: the growth inhibition rate is greater than 85%) | 5 (Level 5: the growth inhibition rate is greater than 85%) | 5 (Level 5: the growth inhibition rate is greater than 85%) |
| CCC(CC)SC(=O)C(C)Oc1nc(F)c(Cl)c(N)c1Cl (stereo not drawn) [Compound 150] | 5 (Level 5: the growth inhibition rate is greater than 85%) | 5 (Level 5: the growth inhibition rate is greater than 85%) | 5 (Level 5: the growth inhibition rate is greater than 85%) | 5 (Level 5: the growth inhibition rate is greater than 85%) | 5 (Level 5: the growth inhibition rate is greater than 85%) | 5 (Level 5: the growth inhibition rate is greater than 85%) |
| CCCCC(C)SC(=O)C(C)Oc1nc(F)c(Cl)c(N)c1Cl (stereo not drawn) [Compound 151] | 5 (Level 5: the growth inhibition rate is greater than 85%) | 5 (Level 5: the growth inhibition rate is greater than 85%) | 5 (Level 5: the growth inhibition rate is greater than 85%) | 5 (Level 5: the growth inhibition rate is greater than 85%) | 5 (Level 5: the growth inhibition rate is greater than 85%) | 5 (Level 5: the growth inhibition rate is greater than 85%) |
| CCCC(C)CSC(=O)C(C)Oc1nc(F)c(Cl)c(N)c1Cl (stereo not drawn) [Compound 152] | 5 (Level 5: the growth inhibition rate is greater than 85%) | 5 (Level 5: the growth inhibition rate is greater than 85%) | 5 (Level 5: the growth inhibition rate is greater than 85%) | 5 (Level 5: the growth inhibition rate is greater than 85%) | 5 (Level 5: the growth inhibition rate is greater than 85%) | 5 (Level 5: the growth inhibition rate is greater than 85%) |
| CCC(C)CCSC(=O)C(C)Oc1nc(F)c(Cl)c(N)c1Cl (stereo not drawn) [Compound 153] | 5 (Level 5: the growth inhibition rate is greater than 85%) | 5 (Level 5: the growth inhibition rate is greater than 85%) | 5 (Level 5: the growth inhibition rate is greater than 85%) | 5 (Level 5: the growth inhibition rate is greater than 85%) | 5 (Level 5: the growth inhibition rate is greater than 85%) | 5 (Level 5: the growth inhibition rate is greater than 85%) |
| CC(C)CCCSC(=O)C(C)Oc1nc(F)c(Cl)c(N)c1Cl (stereo not drawn) [Compound 154] | 5 (Level 5: the growth inhibition rate is greater than 85%) | 5 (Level 5: the growth inhibition rate is greater than 85%) | 5 (Level 5: the growth inhibition rate is greater than 85%) | 5 (Level 5: the growth inhibition rate is greater than 85%) | 5 (Level 5: the growth inhibition rate is greater than 85%) | 5 (Level 5: the growth inhibition rate is greater than 85%) |
| CC(Oc1nc(F)c(Cl)c(N)c1Cl)C(=O)SCC#N (stereo not drawn) [Compound 155] | 5 (Level 5: the growth inhibition rate is greater than 85%) | 5 (Level 5: the growth inhibition rate is greater than 85%) | 5 (Level 5: the growth inhibition rate is greater than 85%) | 5 (Level 5: the growth inhibition rate is greater than 85%) | 5 (Level 5: the growth inhibition rate is greater than 85%) | 5 (Level 5: the growth inhibition rate is greater than 85%) |
| CC(Oc1nc(F)c(Cl)c(N)c1Cl)C(=O)SC[N+](=O)[O-] (stereo not drawn) [Compound 156] | 5 (Level 5: the growth inhibition rate is greater than 85%) | 5 (Level 5: the growth inhibition rate is greater than 85%) | 5 (Level 5: the growth inhibition rate is greater than 85%) | 5 (Level 5: the growth inhibition rate is greater than 85%) | 5 (Level 5: the growth inhibition rate is greater than 85%) | 5 (Level 5: the growth inhibition rate is greater than 85%) |
| CC(Oc1nc(F)c(Cl)c(N)c1Cl)C(=O)SCC(F)F (stereo not drawn) [Compound 157] | 5 (Level 5: the growth inhibition rate is greater than 85%) | 5 (Level 5: the growth inhibition rate is greater than 85%) | 5 (Level 5: the growth inhibition rate is greater than 85%) | 5 (Level 5: the growth inhibition rate is greater than 85%) | 5 (Level 5: the growth inhibition rate is greater than 85%) | 5 (Level 5: the growth inhibition rate is greater than 85%) |
| CC(Oc1nc(F)c(Cl)c(N)c1Cl)C(=O)SCCF (stereo not drawn) [Compound 158] | 5 (Level 5: the growth inhibition rate is greater than 85%) | 5 (Level 5: the growth inhibition rate is greater than 85%) | 5 (Level 5: the growth inhibition rate is greater than 85%) | 5 (Level 5: the growth inhibition rate is greater than 85%) | 5 (Level 5: the growth inhibition rate is greater than 85%) | 5 (Level 5: the growth inhibition rate is greater than 85%) |
| CSC(=O)C(C)Oc1nc(F)c(Cl)c(NCc2ccc(C(F)(F)F)o2)c1Cl (stereo not drawn) [Compound 161] | 5 (Level 5: the growth inhibition rate is greater than 85%) | 5 (Level 5: the growth inhibition rate is greater than 85%) | 5 (Level 5: the growth inhibition rate is greater than 85%) | 5 (Level 5: the growth inhibition rate is greater than 85%) | 5 (Level 5: the growth inhibition rate is greater than 85%) | 5 (Level 5: the growth inhibition rate is greater than 85%) |
